We go through eight compounds from EP4471048A1, “PEPTIDE INHIBITORS OF INTERLEUKIN-23 RECEPTOR” (Zealand Pharma A/S, priority 2023, dated 2024).

One data set addresses T1, human IL-23R (Homo sapiens, UniProt Q5VWK5).
T1 sequence (Q5VWK5 22-629): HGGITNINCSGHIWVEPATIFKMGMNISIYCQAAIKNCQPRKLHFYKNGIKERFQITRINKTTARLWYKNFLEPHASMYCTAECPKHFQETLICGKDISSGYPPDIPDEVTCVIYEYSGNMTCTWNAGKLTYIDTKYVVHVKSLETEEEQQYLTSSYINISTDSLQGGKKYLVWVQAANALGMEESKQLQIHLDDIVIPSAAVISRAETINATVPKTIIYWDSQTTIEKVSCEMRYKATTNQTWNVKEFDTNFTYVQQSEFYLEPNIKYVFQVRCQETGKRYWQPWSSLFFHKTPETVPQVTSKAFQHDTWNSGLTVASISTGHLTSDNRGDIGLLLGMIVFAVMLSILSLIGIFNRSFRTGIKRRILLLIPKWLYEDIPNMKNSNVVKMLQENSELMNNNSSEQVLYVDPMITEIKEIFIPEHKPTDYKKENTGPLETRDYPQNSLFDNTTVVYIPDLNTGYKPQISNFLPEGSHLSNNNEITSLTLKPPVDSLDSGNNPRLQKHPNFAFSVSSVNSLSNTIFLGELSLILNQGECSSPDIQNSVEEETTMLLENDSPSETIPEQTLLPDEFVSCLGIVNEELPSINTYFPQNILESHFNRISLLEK
Nature of the data set: biochemical. The following applies: for Emax: read-out: % displacement (hIL-23R NIuc). An outline of the steps:
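Membranes from HEK293 cells stably expressing Nluc-tagged human IL-23R were incubated 2 h at room temperature with test compound and a fluorophore-labelled tracer. After substrate addition, loss of BRET (TAMRA over luciferase emission) reported tracer displacement. A 4PL fit gave IC50 values.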

The target of data set [1] is IL-23 mediated signalling (Homo sapiens, UniProt Q5VWK5). In words: Functional inhibition of IL-23 mediated STAT3 signalling (phospho-STAT3 MSD) in DB cells. It counts as cell-based. The following applies: for Emax: read-out: hIL-23 (pSTAT3) antagonist % inhibition. The source says: Upon binding of IL-23, the IL-23R forms a heterodimer signalling complex together with IL-12R β1, which through the JAK2/STAT3 pathway promotes phosphorylation of STAT3 to form phospho-STAT3.
For compounds tested in this assay, the response was normalized relative to control values to calculate the IC50 and maximal inhibitory response from a concentration response curve of the compound in presence of a fixed concentration of human IL-23.
The assay procedure was as follows. […] Following preincubation of the DB cells with inhibitor for 15 min in a cell incubator (37 °C, 5% CO2), 20 µL of the prepared 3X the EC80 of hIL-23 solution was added to each well and incubated for 90 min in a cell incubator (37 °C, 5% CO2). For some wells buffer only or IL-23 only corresponding to the EC80 was added to obtain readouts needed for normalization. To terminate the assay, the plate was spun at 1000 G for 5 min to pellet cells, the supernatant removed using an 8-channel manual pipette, and then added 50 µL/well Complete Lysis Buffer from the MSD STAT3 kit (Cat# K150SVD, Mesoscale) to the cell pellet. To completely lyse cells to release phospho-STAT3 for detection, the plate was shaken for 10 min at room temperature (500 rpm) sealed with aluminium foil and placed at -80 °C for a minimum of 15 min. Detection of the phospho-STAT3 level in the cell lysate from the individual wells was determined using the MSD STAT3 kit (Cat# K150SVD, Mesoscale) and read on a Meso QuickPlex SQ 120 plate reader (Mesoscale).
For data analysis raw data counts from the Meso QuickPlex SQ 120 plate reader were normalized relative to the response by the EC80 of h1L-23 alone (no compound added) and the buffer level. Compound potency (IC50) and maximal inhibitory response (% inhibition) were estimated by computer-aided curve fitting using a 4-parameter logistic (4PL) nonlinear model. […] Table 3-2: hIL-23 (pSTAT3) antagonist IC50 and % inhibition

Data set [2] in a line: Peptide stability in simulated intestinal fluid (SIF). The note with it: pig, 37 °C, porcine pancreatin. Format: in vitro ADME. An outline of the steps:
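Peptides were incubated at 37 °C with gentle shaking in pH 6.8 potassium phosphate SIF containing porcine pancreatin (10 g/L). Supernatants were analysed by LC-HRMS. Percent remaining at each timepoint, including 4 h, was calculated relative to time zero from absolute peak areas.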

The nature of data set [3]: Peptide stability in simulated gastric fluid (SGF). Format: in vitro ADME. The following applies: 37 °C, porcine pepsin. An outline of the steps: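 Peptide incubated at 37 °C with gentle shaking in SGF (NaCl, pH 1.2). Samples centrifuged, diluted and analysed by LC-HRMS; percent remaining at each timepoint from absolute peak areas relative to time zero, with 4 h as the reference point.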

Setting [4] is: Table 3-2, DB cells, hIL-23 at EC80, read-out: hIL-23 (pSTAT3) antagonist IC50.
Where [5] appears, read: Table 3-2, maximal inhibitory response, DB cells, hIL-23 at EC80.

Like-named read-outs stand apart in the source and are kept apart here. *1 amine or outer side, *2 acyl side, *3 side chain or, on linkers, in order; H or OH if unused. Where a SMILES comes first, the peptide text is derived from it. Bridges are numbered along the chain shown (N, C = ends). [ ]: non-standard residue; d: D form. 2Nal = N[C@@H](Cc1ccc2ccccc2c1)C(=O)O; AEF = NCCOc1ccc(C[C@H](N)C(=O)O)cc1; 3Pal = N[C@@H](Cc1cccnc1)C(=O)O; Aad = N[C@@H](CCCC(=O)O)C(=O)O; αMeL = CC(C)C[C@](C)(N)C(=O)O; CH2COCH2 = O=C(C[*:1])C[*:2]; dOrn = NCCC[C@@H](N)C(=O)O; Dab = NCC[C@H](N)C(=O)O

A word on the IC50: it is the concentration at which inhibition is half-maximal. One may read the Ki as the equilibrium dissociation constant of an inhibitor or competing ligand from its target.

With `CC[C@H](C)[C@@H]1NC(=O)[C@@H]2CCCCNC(=O)CC[C@@H](C(=O)N[C@@H](CCN)C(=O)N[C@@H](Cc3cccnc3)C(N)=O)NC(=O)C(C)(C)NC(=O)[C@H](Cc3ccc4ccccc4c3)NC(=O)[C@H](Cc3ccc(C)cc3)NC(=O)[C@H](CCC(=O)N2)NC(=O)[C@H](CCC(N)=O)NC(=O)[C@H](Cc2c[nH]c3ccccc23)NC(=O)[C@H](C(C)C)NC1=O` [Compound 17, K(1c)(6c)^†IVWQE(6c)[F(4-Me)][2-Nal][Aib]E(1c)[Dab][3-(3-Pyridyl)-Ala]-[NH2]], the Emax on human IL-23R is 107%; in data set [1] (setting [5]), 99%. Further, the IC50 in data set [1] (setting [4]) was found to be 2.9 nM.
On to `CC(=O)N[C@H]1CCCCNC(=O)CC[C@@H](C(=O)N[C@@H](CCN)C(=O)N[C@@H](Cc2cccnc2)C(N)=O)NC(=O)[C@](C)(CC(C)C)NC(=O)[C@H](Cc2ccc3ccccc3c2)NC(=O)[C@H](Cc2ccc(OCCN)cc2)NC(=O)[C@@H]2CSCC(=O)CSC[C@H](NC(=O)[C@H]([C@@H](C)O)NC1=O)C(=O)N[C@@H](Cc1c[nH]c3ccccc13)C(=O)N[C@@H](CCC(N)=O)C(=O)N2` [Ref 155, [Ac]-K(1c)TC(2a)WQC(2a)[Y(2-aminoethoxy)][2-Nal][2-Me-Leu]E(1c)[Dab][3-(3-Pyridyl)-Ala]-[NH2], reference compound] (Ac-KTCWQC[AEF][2Nal][αMeL]E[Dab][3Pal]-NH2; lactam 1-10; linker 3-6 via CH2COCH2), for which, at human IL-23R, the “% displacement (hIL-23R NIuc)” value was 97%, the IC50 stood at 0.0099 nM and the inhibitory constant (Ki) was 0.00805 nM. In addition, the IC50 in data set [1] was determined as 0.031 nM. Further, the Emax in data set [1] (setting [5]) turned out to be 100%.
As for `CNC(=O)[C@H](Cc1cccnc1)NC(=O)[C@H](CCN)NC(=O)[C@@H]1CCC(=O)NCCCC[C@@H]2NC(=O)CC[C@H](NC(=O)[C@H](CCC(N)=O)NC(=O)[C@H](Cc3c[nH]c4ccccc34)NC(=O)[C@H]([C@@H](C)O)NC2=O)C(=O)N[C@@H](Cc2ccc(OCCN)cc2)C(=O)N[C@@H](Cc2ccc3ccccc3c2)C(=O)N[C@@](C)(CC(C)C)C(=O)N1` [Compound 36, K(1c)(6c)^†TWQE(6c)[Y(2-aminoethoxy)][2-Nal][2-Me-Leu]E(1c)[Dab][3-(3-Pyridyl)-Ala]-[NHMe]] (KTWQE[AEF][2Nal][αMeL]E[Dab][3Pal]-NHMe; lactam 1-9, N-5), on human IL-23R, the 50% inhibitory concentration (IC50) stood at 0.29 nM and the Emax is 100%. Further, in data set [1] (setting [5]), the Emax came to 97%.
For `CC(C)C[C@]1(C)NC(=O)[C@H](Cc2ccc3ccccc3c2)NC(=O)[C@H](Cc2ccc(OCCN)cc2)NC(=O)[C@@H]2CCC(=O)N[C@H](CCCNC(=O)CCC[C@@H](C(=O)N[C@@H](CCN)C(=O)N[C@@H](Cc3cccnc3)C(N)=O)NC1=O)C(=O)N[C@@H]([C@@H](C)O)C(=O)N[C@@H](C(C)C)C(=O)N[C@@H](Cc1c[nH]c3ccccc13)C(=O)N[C@@H](CCC(N)=O)C(=O)N2` [Compound 6, [{d}Orn](1c)(6c)^†TVWQE(6c)[Y(2-aminoethoxy)][2-Nal][2-Me-Leu][hGlu](1c)[Dab][3-(3-Pyridyl)-Ala]-[NH2]] ([dOrn]TVWQE[AEF][2Nal][αMeL][Aad][Dab][3Pal]-NH2; lactam 1-10, N-6), at human IL-23R, the “% displacement (hIL-23R NIuc)” value is recorded as 104% and the half-maximal inhibitory concentration (IC50) was found to be 0.022 nM. Besides, the Emax in data set [1] (setting [5]) was found to be 104%.
As for `CC(C)C[C@]1(C)NC(=O)[C@H](Cc2ccc3ccccc3c2)NC(=O)[C@H](Cc2ccc(OCCN)cc2)NC(=O)[C@@H]2CCNC(=O)CC[C@H](NC(=O)[C@H](CO)NC(=O)Cc3ccc(cc3)CNC(=O)CC[C@@H](C(=O)N[C@@H](CCN)C(N)=O)NC1=O)C(=O)N[C@@H](Cc1c[nH]c3ccccc13)C(=O)N[C@@H](CCC(N)=O)C(=O)N2` [Ref 125, [4-Aminomethyl-phenylacetyl](1c)*SE(2c)WQ[Dab](2c)[Y(2-aminoethoxy)][2-Nal][2-Me-Leu]E(1c)[Dab]-[NH2], reference compound], at human IL-23R, the “% displacement (hIL-23R NIuc)” value was determined as 101%, 0.73 nM corresponded to half-maximal inhibition (IC50) and the affinity corresponds to a Ki of 0.599 nM. Besides, the IC50 in data set [1] (setting [4]) came to 21 nM. Moreover, in data set [1] (setting [5]), the Emax stood at 98%.
For the compound `CC(C)C[C@]1(C)NC(=O)[C@H](Cc2ccc3ccccc3c2)NC(=O)[C@H](Cc2ccc(OCCN)cc2)NC(=O)[C@@H]2CCC(=O)N[C@@H](CCCCNC(=O)CC[C@@H](C(=O)N[C@@H](CCN)C(=O)N[C@@H](Cc3cccnc3)C(N)=O)NC1=O)C(=O)N[C@@H]([C@@H](C)O)C(=O)N[C@@H](C(C)C)C(=O)N[C@@H](Cc1c[nH]c3ccccc13)C(=O)N[C@@H](CCC(N)=O)C(=O)N2` [Compound 2, K(1c)(6c)^†TVWQE(6c)[Y(2-aminoethoxy)][2-Nal][2-Me-Leu]E(1c)[Dab][3-(3-Pyridyl)-Ala]-[NH2]] (KTVWQE[AEF][2Nal][αMeL]E[Dab][3Pal]-NH2; lactam 1-10, N-6), the half-maximal inhibitory concentration (IC50) against human IL-23R turned out to be 0.021 nM; in data set [1] (SAR tables 2-1 to 2-7, DB cells, hIL-23 at EC80, read-out: IC50 (pSTAT3)) it was 0.11 nM. Besides, the results for the Emax (on human IL-23R; in data set [1] (setting [5])) were 100% and 99%, respectively.
`CC(C)C[C@]1(C)NC(=O)[C@H](Cc2c[nH]c3ccccc23)NC(=O)[C@H](Cc2c[nH]c3ccccc23)NC(=O)[C@@H]2CSCC(=O)CSC[C@H](NC(=O)[C@H]([C@@H](C)O)NC(=O)[C@@H](NC(=O)CN)CSCC(=O)CSC[C@@H](C(=O)N[C@@H](CO)C(N)=O)NC1=O)C(=O)N[C@@H](Cc1c[nH]c3ccccc13)C(=O)N[C@@H](CCC(=O)O)C(=O)N2` (single isomer, unassigned) [I5 (isomer 3), H-GC(1a)TC(2a)WEC(2a)WW[2-Me-Leu]C(1a)S-[NH2], reference compound] displayed a 50% inhibitory concentration (IC50) against human IL-23R of 90 nM. Besides, the Emax in data set [1] (DB) came out at 91%.
With `CNC(=O)[C@H](Cc1cccnc1)NC(=O)[C@H](CCN)NC(=O)[C@@H]1CCC(=O)NCCCC[C@@H]2NC(=O)CC[C@H](NC(=O)[C@H](CCC(N)=O)NC(=O)[C@H](Cc3c[nH]c4ccccc34)NC(=O)CCN(C)C2=O)C(=O)N[C@@H](Cc2ccc(OCCN)cc2)C(=O)N[C@@H](Cc2ccc3ccccc3c2)C(=O)N[C@@](C)(CC(C)C)C(=O)N1` [Compound 81, K(1c)(6c)^†[N-Me-3-Aminopropanoyl]WQE(6c)[Y(2-aminoethoxy)][2-Nal][2-Me-Leu]E(1c)[Dab][3-(3-Pyridyl)-Ala]-[NHMe]], at human IL-23R, the “% displacement (hIL-23R NIuc)” value turned out to be 103% and the 50% inhibitory concentration (IC50) stood at 0.056 nM. Besides, in data set [2] (pH 6.8, 1 h), the amount remaining at 1 h, 10 µM is 101%. Further, the fraction remaining at 4 h, 10 µM in data set [2] (pH 6.8, 4 h, read-out: SIF (% remaining 4 h)) is 78%. The “SGF (% remaining 4 h)” value in data set [3] (10 µM, pH 1.2, 4 h) is reported as 99%. The amount remaining at 1 h, 10 µM in data set [3] (pig, simulated gastric fluid (SGF) with porcine pepsin (3.2 g/L), pH 1.2, 10 µM, pH 1.2, 1 h, read-out: SGF (% remaining 1 h)) is 100%.
